Test system: aldose reductase
Experiment: Galactitol (dulcitol) accumulation in galactosemic rats, in vivo
Conditions: percentage decrease of dulcitol accumulation vs untreated galactose-fed rats, four days; for % Lowering Galactitol Accumulation In Vivo %(D): diaphragm; for % Lowering Galactitol Accumulation In Vivo %(L): lens
From the text: The aldose reductase inhibiting property of the compounds of this invention and the utilization of the compounds in preventing, diminishing and alleviating diabetic complications are demonstrable in experiments using galactosemic rats, see Dvornik et al., Science, 182, 1146 (1973). Such experiments are exemplified hereinbelow after the listing of the following general comments pertaining to these experiments: • (a) Four or more groups of six male rats, 50-70 g, Sprague-Dawley strain, were used. The first group, the control group, was fed a mixture of laboratory chow (rodent Laboratory Chow, Purina) and glucose at 20% (w/w %) concentration. An untreated galactosemic group was fed a similar diet in which galactose was substituted for glucose. The third group was fed a diet prepared by mixing a given amount of the test compound with the galactose containing diet The concentration of galactose in the diet of the treated groups was the same as that for the untreated galactosemic group. • (b) After four days, the animals were killed by euthanization. Both the lens and sciatic nerve were removed, weighed and stored frozen for polyol determination. • (c) The polyol determination was performed by a modification of the procedure of M. Kraml and L. Cosyns, Clin. Biochem., 2, 373 (1969). Only two minor reagent changes were made: (a) the rinsing mixture was an aqueous 5% (w/v) trichloroacetic acid solution and (b) the stock solution was prepared by dissolving 25 mg of dulcitol in 100 mL of an aqueous trichloroacetic acid solution. [N.B.: For each experiment the average value found in the tissue from rats fed the glucose diet was subtracted from the individual values found in the corresponding tissue in galactose-fed rats to obtain the amount of polyol accumulated.] The aldose reductase inhibiting effects of the compounds of formula (I) were also tested by employing an in vitro testing procedure similar to that described by S. Hayman and J.H. Kinoshita, J. Biol. Chem., 240, 877 (1965). In the present case the procedure of Hayman and Kinoshita was modified in that the final chromatography step was omitted in the preparation of the enzyme from bovine lens.
The figures under L, N, and D represent the percentage decrease of dulcitol accumulation in the tissues of the lens, sciatic nerve, and diaphragm, respectively for treated rats as compared to untreated rats.

**Q.** How did the “% Lowering Galactitol Accumulation In Vivo %(D)” value (Table 2, 50 mg/kg/day in diet) turn out when `O=C1c2ccccc2C2(CC(=O)N(N=C3CCCC3)C2=O)C(=O)N1Cc1nc2cc(C(F)(F)F)ccc2s1` (stereo not drawn) [1'-(Cyclopentylideneamino)-2-[[5-(trifluoromethyl)-2-benzothiazolyl]methyl]spiro[isoquinoline-4(1H),3'pyrrolidine]-1,2',3,5'(2H)-tetrone] was run?
**A.** 95%

**Q.** And the “% Lowering Galactitol Accumulation In Vivo %(L)” value (Table 2, 50 mg/kg/day in diet)?
**A.** 28%

**Q.** What does the source list for `CC(C)=NN1C(=O)CC2(C(=O)N(Cc3nc4cc(C(F)(F)F)ccc4s3)C(=O)c3ccccc32)C1=O` (stereo not drawn) [1'-[(1-Methylethylidene)amino]-2-[[5-(trifluoromethyl)-2-benzothiazolyl]methyl]spiro[isoquinoline]-1,2',3,5'(2H)-tetrone]?
**A.** % Lowering Galactitol Accumulation In Vivo %(D) (Table 2, 50 mg/kg/day in diet): 97%; % Lowering Galactitol Accumulation In Vivo %(L) (Table 2, 50 mg/kg/day in diet): 37%

**Q.** `O=C1c2ccccc2C2(CC(=O)N(N=C3CCOCC3)C2=O)C(=O)N1Cc1nc2cc(C(F)(F)F)ccc2s1` (stereo not drawn) [1'-[(Tetrahydro-4H-pyran-4-ylidene)amino]-2-[[5-(trifluoromethyl)-2-benzothiazolyl]methyl]spiro[isoquinoline-4(1H),3'-pyrrolidine]-1,2',3,5'(2H)-tetrone] was tested. Which “% Lowering Galactitol Accumulation In Vivo %(D)” value (Table 2, 50 mg/kg/day in diet) did it give?
**A.** 96%

**Q.** And the “% Lowering Galactitol Accumulation In Vivo %(L)” value (Table 2, 50 mg/kg/day in diet)?
**A.** 41%

**Q.** With `NN1C(=O)CC2(C1=O)C(=O)N(Cc1nc3cc(C(F)(F)F)ccc3s1)C(=O)c1ccc(F)cc12` (stereo not drawn) [R^1=F, R^4=H, R^5=H] as the compound, how does the “% Lowering Galactitol Accumulation In Vivo %(D)” value (dose 50 mg/kg/day in diet) read?
**A.** 97%

**Q.** What about the “% Lowering Galactitol Accumulation In Vivo %(L)” value (dose 50 mg/kg/day in diet) of the same compound?
**A.** 31%

**Q.** `CC(=O)NN1C(=O)CC2(C(=O)N(Cc3nc4cc(C(F)(F)F)ccc4s3)C(=O)c3ccccc32)C1=O` (stereo not drawn) [R^1=H, R^4=H, R^5=COCH3, N-[2-[[5-(trifluoromethyl)-2-benzothiazolyl]methyl]-2,3-dihydro-1,2',3,5'-tetraoxospiro[isoquinoline-4(1H),3'-pyrrolidine]-1'-yl] acetamide] was tested. Which “% Lowering Galactitol Accumulation In Vivo %(D)” value (dose 50 mg/kg/day in diet) did it give?
**A.** 97%

**Q.** What about the “% Lowering Galactitol Accumulation In Vivo %(L)” value (dose 50 mg/kg/day in diet) of the same compound?
**A.** 40%

**Q.** What does the source list for `NN1C(=O)CC2(C1=O)C(=O)N(Cc1nc3cc(C(F)(F)F)ccc3s1)C(=O)c1ccccc12` (stereo not drawn) [R^1=H, R^4=H, R^5=H, 1'-Amino-2-[[5-(trifluoromethyl)-2-benzothiazolyl]methyl]spiro[isoquinoline-4(1H),3'-pyrrolidine]-1,2',3,5'(2H)-tetrone]?
**A.** % Lowering Galactitol Accumulation In Vivo %(D) (dose 50 mg/kg/day in diet): 96%; % Lowering Galactitol Accumulation In Vivo %(L) (dose 50 mg/kg/day in diet): 61%

From patent publication EP0618917B1, “1'-AMINO-2- (BENZOTHIAZOLYL)METHYL]SPIRO ISOQUINOLINE-4(1H),3'-PYRROLIDINE]-1,2',3,5'(2H)-TETRONES AND ANALOGS THEREOF USEFUL AS ALDOSE REDUCTASE INHIBITORS” (AMERICAN HOME PRODUCTS CORPORATION, priority 1991, dated 1993)
